This is an account of results in patent publication US12116388B2, “Amylin receptor agonists” (Novo Nordisk A/S, priority 2022, dated 2024).

SMILES strings stand for the structures. Starred links: 1 amine or outer side, 2 acyl side, 3 side chain; linkers in the order of their positions; H or OH if unused. Positions of bridges follow the written chain, without caps; N, C: chain ends. Residues, ends and D or L forms follow the SMILES beside them. Groups on a side chain read outwards from the residue. *: point of attachment. C20 diacid = O=C(O)CCCCCCCCCCCCCCCCCCC(=O)*; C18 diacid = O=C(O)CCCCCCCCCCCCCCCCC(=O)*; γGlu = O=C(O)[C@H](CCC(=O)[*:2])N[*:1]

The nature of data set [1]: Oral pharmacokinetic profiles in Beagle dogs (SNAC tablets). In kind it is in vivo. The settings on record: oral tablet: 3 mg compound, 300 mg SNAC, 7.7 mg magnesium stearate; for half-life: male, dog, plasma, read-out: T½ (converted). How it is done:
To be able to evaluate oral exposure following tablet dosing, tablet compositions comprising the test substance and SNAC (sodium N-(8-(2-hydroxybenzoyl)amino)caprylate) were prepared by mixing test substance with roller compacted SNAC and magnesium stearate as, e.g., described in WO 2019/149880.
This assay was performed to measure the oral bioavailability of a compound. The assay determined the exposure of test compound following oral administration in Beagle dogs as described by relevant pharmacokinetic parameters and plasma concentration curves.
Preparation of tablets for oral administration: tablets containing test compound used for the assay described herein were immediate release SNAC-based tablets. The test compound was spray-dried as neutral sodium salt (pH 7-8). Dry granulation was carried out by roller compaction on a Gerteis MINI-PACTOR. Tablets containing 3 mg test compound, 300 mg sodium N-(8-(2-hydroxybenzoyl)amino)caprylate (SNAC) and 7.7 mg magnesium stearate were produced on at Kilian Style One using 7.2×12 mm punches.
Determination of the absorption following oral administration: eight (8) male Beagle dogs, 1 to 8 years of age and weighing approximately 10-15 kg at the start of the studies, were used. The dogs were group-housed in pens (12 hours light:12 hours dark), and fed individually and restrictedly once daily with Royal Canin Medium Adult dog (Royal Canin Products, China Branch, or Brogaarden A/S, Denmark). Exercise and group social were permitted daily, whenever possible. The dogs were used for repeated pharmacokinetic studies with a suitable wash-out period between successive dosing. An appropriate acclimatisation period was given prior to initiation of the first pharmacokinetic study. All handling, dosing and blood sampling of the animals were performed by trained and skilled staff. Before the studies the dogs were fasted overnight and from 0 to 4 h after dosing. Besides, the dogs were restricted to water 1 hour before dosing until 4 hours after dosing, but otherwise had ad libitum access to water during the whole period.
Tablets containing the test compound were administered in the following manner: 10 min prior to tablet administration the dogs were dosed subcutaneously with approximately 3.2 nmol/kg of glucagon. The tablets were placed in the back of the mouth of the dog to prevent chewing. The mouth was then closed, and 10 mL of tap water was given by a syringe to facilitate swallowing of the tablet. Blood was sampled at predefined time points for up till 288 hours after dosing to adequately cover the full plasma concentration-time absorption profile of the compound. For each blood sampling time point approximately 1.2 mL of whole blood was collected in a 1.5 mL EDTA coated tube, and the tube was gently turned to allowing mixing of the sample with the EDTA. Then, the blood samples were kept on ice until centrifugation (4 min, 4° C., 4000 rpm). Plasma was pipetted into Micronic tubes on dry ice and kept at −20° C. until analysis. Blood samples were taken as appropriate, for example from a venflon in the cephalic vein in the front leg for the first 2 hours and then with syringe from the jugular vein for the rest of the time points (the first few drops were allowed to drain from the venflon to avoid heparin saline from the venflon in the sample).
Bioanalysis was carried out as follows: plasma concentrations of test compound were assayed by plasma protein precipitation and analysed by liquid chromatography-mass spectrometry (LC-MS). Calibrators were prepared by spiking blank dog plasma with analytes to reach the final concentrations in the range typically from 0.5 to 200 nM. Calibrators, plasma blanks or study samples were prepared for LC-MS by protein precipitation by adding 3 volumes of ethanol followed by centrifugation at 4000 rpm at 4° C. for 1 h. The supernatant was diluted with 2 volumes of Milli-Q water containing 0.1% formic acid before injection on the LC-MS system. […]

The target in data set [2] is T1, human calcitonin receptor (hCTR) (Homo sapiens, UniProt P30988).
T1 construct: host or cells: BHK (Baby Hamster Kidney), Hollex-1 cell line
T1 sequence (P30988 25-474): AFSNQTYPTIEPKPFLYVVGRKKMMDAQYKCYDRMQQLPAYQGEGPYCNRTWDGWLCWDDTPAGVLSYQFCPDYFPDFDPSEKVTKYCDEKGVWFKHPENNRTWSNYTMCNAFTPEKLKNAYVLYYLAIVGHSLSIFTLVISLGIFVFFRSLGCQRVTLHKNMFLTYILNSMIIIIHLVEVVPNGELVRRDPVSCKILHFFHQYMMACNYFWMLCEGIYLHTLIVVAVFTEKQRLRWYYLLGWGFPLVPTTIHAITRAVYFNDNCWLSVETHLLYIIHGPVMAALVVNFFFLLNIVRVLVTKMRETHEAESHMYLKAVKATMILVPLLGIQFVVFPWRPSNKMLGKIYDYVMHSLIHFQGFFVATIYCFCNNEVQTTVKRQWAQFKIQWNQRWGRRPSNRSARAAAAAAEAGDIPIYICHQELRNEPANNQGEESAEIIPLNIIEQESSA
Kind of data set: Human calcitonin receptor (hCTR) in vitro potency assay, CRE-luciferase reporter in BHK cells. In kind it is cell-based. The settings on record: BHK hCTR/CRE-Luc cells, 3 hours incubation, assay buffer with 1% ovalbumin; read-out: hCalcR potency, EC50. Summed up: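 Luciferase signal from a CRE reporter served as the cAMP read-out after 3 h, 37 °C exposure to compound. Cells were stably transfected BHK expressing hCTR, and the buffer was phenol-red-free DMEM with 10 mM HEPES and 1% ovalbumin. Compounds were tested as 7-point, 7-fold dilutions, often from about 10 nM.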

Data set [3] addresses T2, human amylin receptor (hAMYR3) (Homo sapiens, UniProt O60896+P30988).
T2 construct: host or cells: BHK (Baby Hamster Kidney), Hollex-1 cell line further transfected with RAMP3
Kind of data set: Human amylin receptor (hAMYR3) in vitro potency assay, CRE-luciferase reporter in BHK cells. In kind it is cell-based. The settings on record: BHK hAMYR3/CRE-Luc cells, 3 hours incubation, assay buffer with 1% ovalbumin. The essentials: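 Luminescence from a CRE-driven luciferase reporter reflects cAMP-mediated receptor activation. Peptides were serially diluted (7 concentrations, 7-fold steps, typically starting near 10 nM) in buffer with 1% ovalbumin and applied for 3 h at 37 °C to BHK cells co-expressing calcitonin receptor (a) and RAMP3.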
A general note: A reporter such as luciferase makes a cellular process visible.

In general, EC50 refers to the concentration at which the effect is half-maximal.

T2 sequence (O60896 24-148, one chain of several): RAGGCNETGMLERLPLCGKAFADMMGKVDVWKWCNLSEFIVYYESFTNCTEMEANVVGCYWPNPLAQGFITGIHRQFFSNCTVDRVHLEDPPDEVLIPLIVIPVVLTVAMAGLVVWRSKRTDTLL

Take `CC[C@H](C)[C@H](NC(=O)[C@@H]1CCCN1C(=O)CNC(=O)[C@H](Cc1ccccc1)NC(=O)[C@H](Cc1c[nH]cn1)NC(=O)[C@H](Cc1c[nH]cn1)NC(=O)[C@H](CC(C)C)NC(=O)[C@H](Cc1ccccc1)NC(=O)[C@H](CCC(=O)O)NC(=O)[C@H](C)NC(=O)[C@H](CC(C)C)NC(=O)[C@H](CCCNC(=N)N)NC(=O)[C@H](C)NC(=O)[C@@H](NC(=O)[C@H](CCC(N)=O)NC(=O)[C@H](C)NC(=O)[C@@H](NC(=O)[C@H](CO)NC(=O)[C@H](CC(C)C)NC(=O)[C@H](CO)NC(=O)CNC(=O)[C@H](C)NC(=O)CC[C@H](NC(=O)CCCCCCCCCCCCCCCCC(=O)O)C(=O)O)[C@@H](C)O)[C@@H](C)O)C(=O)N[C@@H](CC(C)C)C(=O)N1CCC[C@H]1C(=O)N1CCC[C@H]1C(=O)N[C@H](C(=O)N[C@@H](CC(=O)O)C(=O)N[C@H](C(=O)NCC(=O)N[C@@H](CO)C(=O)N[C@@H](CCC(=O)O)C(=O)N[C@H](C(=O)N1CCC[C@H]1C(N)=O)[C@@H](C)O)C(C)C)[C@@H](C)O` [Compound 15, N^1-[(4S)-4-carboxy-4-(17-carboxyheptadecanoylamino)butanoy]-[Ala1,Gly2,Ser3,Leu4,Ser5,Ala7,Gln8,Ala10,Glu14,His17,Pro25,Pro28,Pro29,Asp31,Glu35,Pro37],des-(19-22)-human amylin] ({C18 diacid-γGlu}-AGSLSTAQTARLAEFLHHFGPILPPTDVGSETP-NH2): in data set [1], the half-life was 85.9 h, the “AUC/D” value was 21.07 kg·h/L and the “Cmax/D” value came to 0.29 kg/L. The 50% effective concentration (EC50) in data set [2] was 1.01 pM.

Turning to `CC[C@H](C)[C@H](NC(=O)[C@@H]1CCCN1C(=O)CNC(=O)[C@H](Cc1ccccc1)NC(=O)[C@H](CC(N)=O)NC(=O)[C@H](CC(=O)O)NC(=O)[C@H](CO)NC(=O)[C@H](CO)NC(=O)[C@H](Cc1c[nH]cn1)NC(=O)[C@H](Cc1c[nH]cn1)NC(=O)[C@H](CC(C)C)NC(=O)[C@H](Cc1ccccc1)NC(=O)[C@H](CCC(=O)O)NC(=O)[C@H](C)NC(=O)[C@H](CC(C)C)NC(=O)[C@H](CCCNC(=N)N)NC(=O)[C@H](C)NC(=O)[C@@H](NC(=O)[C@H](CCC(N)=O)NC(=O)[C@H](C)NC(=O)[C@@H](NC(=O)[C@H](CO)NC(=O)[C@H](CC(C)C)NC(=O)[C@H](Cc1c[nH]cn1)NC(=O)[C@H](CO)NC(=O)[C@H](C)NC(=O)CC[C@H](NC(=O)CCCCCCCCCCCCCCCCCCC(=O)O)C(=O)O)[C@@H](C)O)[C@@H](C)O)C(=O)N[C@@H](CC(C)C)C(=O)N1CCC[C@H]1C(=O)N1CCC[C@H]1C(=O)N[C@H](C(=O)N[C@@H](CC(=O)O)C(=O)N[C@H](C(=O)NCC(=O)N[C@@H](CO)C(=O)N[C@@H](CC(N)=O)C(=O)N[C@H](C(=O)N1CCC[C@H]1C(N)=O)[C@@H](C)O)C(C)C)[C@@H](C)O` [Compound 2, N^1-[(4S)-4-carboxy-4-(19-carboxynonadecanoylamino)butanoyl]-[Ala1,Ser2,His3,Leu4,Ser5,Ala7,Gln8,Ala10,Glu14,His17,Asp21,Pro25,Pro28,Pro29,Asp31,Pro37]-human amylin] ({C20 diacid-γGlu}-ASHLSTAQTARLAEFLHHSSDNFGPILPPTDVGSNTP-NH2), in data set [1], the half-life is 146 h, the “AUC/D” value came to 14.06 kg·h/L and the “Cmax/D” value was determined as 0.15 kg/L. Moreover, the 50% effective concentration (EC50) in data set [2] is 1.31 pM.

In the case of `CC[C@H](C)[C@H](NC(=O)[C@@H]1CCCN1C(=O)CNC(=O)[C@H](Cc1ccccc1)NC(=O)[C@H](CC(N)=O)NC(=O)[C@H](CC(N)=O)NC(=O)[C@H](CO)NC(=O)[C@H](CO)NC(=O)[C@H](Cc1c[nH]cn1)NC(=O)[C@H](CCCNC(=N)N)NC(=O)[C@H](CC(C)C)NC(=O)[C@H](Cc1ccccc1)NC(=O)[C@H](CCC(=O)O)NC(=O)[C@H](C)NC(=O)[C@H](CC(C)C)NC(=O)[C@H](CCCNC(=N)N)NC(=O)[C@H](CCC(N)=O)NC(=O)[C@@H](NC(=O)[C@H](C)NC(=O)[C@@H]1CSSC[C@H](NC(=O)[C@H](CCCCN)NC(=O)CC[C@H](NC(=O)CCCCCCCCCCCCCCCCCCC(=O)O)C(=O)O)C(=O)N[C@@H](CC(N)=O)C(=O)N[C@@H]([C@@H](C)O)C(=O)N[C@@H](C)C(=O)N[C@@H]([C@@H](C)O)C(=O)N1)[C@@H](C)O)C(=O)N[C@@H](CC(C)C)C(=O)N1CCC[C@H]1C(=O)N1CCC[C@H]1C(=O)N[C@H](C(=O)N[C@@H](CCC(N)=O)C(=O)N[C@H](C(=O)NCC(=O)N[C@@H](CO)C(=O)N[C@@H](CC(N)=O)C(=O)N[C@H](C(=O)N1CCC[C@H]1C(N)=O)[C@@H](C)O)C(C)C)[C@@H](C)O` [Compound 1, N^1Alpha-[(4S)-4-carboxy-4-(19-carboxynonadecanoylamino)butanoyl]-[Glu14,Arg17,Pro25,Pro28,Pro29,Gln31,Pro37]-human amylin, reference compound] ({C20 diacid-γGlu}-KCNTATCATQRLAEFLRHSSNNFGPILPPTQVGSNTP-NH2; disulfide 2-7), in data set [1], the “Cmax/D” value is given as 0.057 kg/L.

In the case of `CC[C@H](C)[C@H](NC(=O)[C@H](CCCCNC(=O)CC[C@H](NC(=O)CCCCCCCCCCCCCCCCC(=O)O)C(=O)O)NC(=O)CNC(=O)[C@H](Cc1ccccc1)NC(=O)[C@@H]1CCCN1C(=O)[C@H](CC(=O)O)NC(=O)[C@H](CO)NC(=O)[C@H](CO)NC(=O)[C@H](Cc1c[nH]cn1)NC(=O)[C@H](Cc1c[nH]cn1)NC(=O)[C@H](CC(C)C)NC(=O)[C@H](Cc1ccccc1)NC(=O)[C@H](CCC(=O)O)NC(=O)[C@H](C)NC(=O)[C@H](CC(C)C)NC(=O)[C@H](CCCNC(=N)N)NC(=O)[C@H](CCC(N)=O)NC(=O)[C@@H](NC(=O)[C@H](CCC(N)=O)NC(=O)[C@H](C)NC(=O)[C@@H](NC(=O)[C@H](CO)NC(=O)[C@H](CC(C)C)NC(=O)[C@H](CCC(N)=O)NC(=O)[C@H](CO)NC(=O)[C@H](C)NC(C)=O)[C@@H](C)O)[C@@H](C)O)C(=O)N1CCC[C@H]1C(=O)N[C@@H](CO)C(=O)N[C@@H](CO)C(=O)N[C@H](C(=O)N[C@@H](CC(=O)O)C(=O)N[C@H](C(=O)NCC(=O)N1CCC[C@H]1C(=O)N[C@@H](CC(=O)O)C(=O)N[C@H](C(=O)N1CCC[C@H]1C(N)=O)[C@@H](C)O)C(C)C)[C@@H](C)O` [Compound 19, N^1-acetyl,N{Epsilon-25}-[(4S)-4-carboxy-4-(17-carboxyheptadecanoylamino)butanoyl]-[Ala1,Ser2,Gln3,Leu4,Ser5,Ala7,Gln8,Glu14,His17,Asp21,Pro22,Lys25,Pro27,Asp31,Pro34,Asp35,Pro37]-human amylin] (Ac-ASQLSTAQTQRLAEFLHHSSDPFGK([γGlu-C18 diacid])IPSSTDVGPDTP-NH2), the EC50 is 1.5 pM in data set [3] and 1 pM in data set [2].
